Reference: patent US6440432B1, “Skin cosmetic compositions containing dextran or maltodextrin and a weak carboxylic acid” (Unilever Home & Personal Care USA, a division of Conopco, …, priority 1999, dated 2002)
“Also recorded” adds a separate entry of the source.

What was measured:
[1] = tested on: contralateral nasolabial folds of subjects sensitive to glycolic acid; conditions: in vivo, pH 3.8
Excerpt: (§1) Procedure for in-vivo sting test: This was a randomized, double blind study where each subject evaluated one test formulation and a control formulation or two test formulations on contralateral nasolabial folds. […] A maximum of 20 qualified subjects (minimum of 15) were utilized in each subsequent test. One paired comparison was made on each testing day, with a minimum of 3 days between sting testing throughout the study. Subjects underwent a 15 second Ivory soap wash regime immediately prior to product testing for enhancing sting response. […] Study personnel then applied one test formulation and one control or test formulation simultaneously to the appropriate left/right test site, and gently but thoroughly rubbed in. Subjects compared the stinging potential of the two formulations, over a 7.5 minute period using a self-assessment questionnaire.
(§2) Sting/Burn Propensity: The degree of stinging/burning felt on the left and right inner cheek and crease of the nose was evaluated using the following scale at the times indicated in Tables below:
(§3) 0-no stinging/burning; 1-very slight stinging/burning; 2-slight stinging/burning; 3-moderate stinging/burning; 4-moderately high stinging/burning; 5-high stinging/burning; 6-extreme stinging/burning.
(§4) Determination of Statistical Significance: At each evaluation time point after baseline, the parametric paired t-test (two-tailed) was performed, to compare the extent of attribute change from baseline between each treatment comprising a paired comparison test, with subject acting as a block in these analyses. […] The test can be implemented using the SAS software procedure MEANS with the T and PRT options specified.
(§5) Statistical significance was determined at p≦0.1.

[2] = tested on: photodamaged skin on both forearms; assay: 12-week bilateral comparison use test, clinical assessment of photodamaged skin; assay type: in vivo, human; conditions: summary statement
Procedure: Procedure: The study was a 12-week bilateral comparison use test of two formulations. […] At Baseline (week 0), week 4, 8 and 12, visual evaluation was conducted. Product assignment was randomized and balanced for left/right usage across the subject pool. Subjects were instructed to use the appropriate product to the left/right arms at home and applied approximately 1 gram twice daily for 12 weeks. A minimum of 15 qualified subjects per paired comparison completed the study. […] 0=none […] 4-6=moderate 7-9=severe The following paired comparisons were made: […] The Wilcoxon signed rank test, Pratt-Lehmann version, was used to statistically assess the magnitude of average change from baseline attributable to treatment with subject acting as a block in this analysis. In addition, to compare the extent of change from baseline between the two treatments within a cell, the nonparametric Wilcoxon signed-rank test, Pratt-Lehmann version, was also used.

[3] = tested on: contralateral nasolabial folds of subjects sensitive to glycolic acid; assay: in-vivo sting test (sting/burn propensity and forced choice); conditions: for Effect on sting/irritation caused by weak carboxylic acids (in words, summary): summary of Examples 1-6; for Effect on stinging/burning propensity of Base Formula A containing 8% glycolic acid (in words): substance added to the formulation, pH 3.8
Excerpt: as §1, §2, §3, §4, §5

[4] = tested on: procollagen I in neonatal human dermal fibroblasts; assay: procollagen I production by fibroblasts (slot blot); assay type: cell-based; conditions: combination with glycolic acid
Excerpt: Collagen is a predominant skin protein. It is synthesized by fibroblasts in the dermis. The synthesis of collagen decreases with aging or photodamage. Collagen l is first made as a precursor molecule called Pro-collagen l. Increased production of procollagen 1 is a marker of an increased collagen level in response to a test compound application.
Method: Neonatal human dermal fibroblasts were purchased from Clonetics Corp., San Diego, Calif. All materials for cell culture were purchased from Life Technologies, NY. Cells (between passages 5-10) were seeded at a density of approximately 10,000/well in the inner 48 wells of a 96-well plate in DMEM (Dulbecco's Modified Eagle's Medium), high-glucose, supplemented with 2 mM L-glutamine, 10% fetal bovine serum, and antibiotic and antimycotic solutions. Cells were then grown to confluence for 2 days. At confluence, the medium was removed and cells were washed with serum-free DMEM, and each well dosed with 200 μl of a solution of a test compound in serum-free DMEM. Each dosing was replicated in the total of six wells. […]
For the analysis of procollagen I in the solutions, they were diluted in DMEM (approximately 20 μl sample in 200 μl DMEM). […] Percent increase was calculated as a ratio of optical density of cells treated with a test compound over control ×100.

[5] = cited from earlier work
skin = conditions: LAREX publication Mar. 23, 1998; cited from earlier work
[6] = tested on: transglutaminase-K (Tgase K) in Normal Human keratinocytes; assay: keratinocyte differentiation (transglutaminase absorbance / µg DNA); assay type: cell-based; conditions: combination with lactic acid
Excerpt: Keratinocytes, the major cell type in the epidermis, undergo a program of differentiation leading to formation of corneocytes which form the stratum corneum and provide a protective barrier against water loss and entry of harmful substances and pathogens. A prominent feature of keratinocyte differentiation is the formation of a highly insoluble, cross-linked envelope (CE) immediately beneath the keratinocyte plasma membrane. The production of keratinocyte CE is catalyzed by the enzyme transglutaminase-K (Tgase K) which cross-links certain precursor proteins in the cell. […] Therefore, agents that increase Tgase-K activity have the potential of providing benefits to the skin.
Method: Normal Human keratinocytes were seeded in 96-well plates at 4000 cells/well and grown in Keratinocyte Growth Medium (KGM) obtained from Clonetics Corp. Cells were treated with test compounds at various concentrations for 48 hours with an intermittent change of medium after 24 hrs. 6 replicate wells were used for each test. At the end of the incubation period, two parameters were measured on the cells—I. DNA and II. […]
I. DNA was measured using a method described by Rago et al Anal. Biochem 191:31-34,1990. […] Readings were then taken on Millipore Fluorescence Miicroplate Reader (ex/em 360/450 nm). Amount of DNA per well (α) was calculated using standards.
II. […] Absorbance was measured at 490nm (b). […]

Molecule	Effect on sting/irritation caused by weak carboxylic acids (in words, summary) [3]	Effect on procollagen I levels (in words) [4]	Effect on stinging/burning propensity of Base Formula A containing 8% glycolic acid (in words) [3]	also measured
Dextran	decrease irritation; also recorded: reduced the sting caused by weak acids	significant increase in procollagen l levels	–	Effect on stinging/burning propensity of Base Formula B containing 8% glycolic acid (in words) [1]: reduced the stinging/burning propensity; Effect on anti-aging efficacy of hydroxy acids (in words) [2]: enhances the anti-aging efficacy of hydroxy acids
CC(O)CC(=O)O (stereo not drawn) [beta-hydroxybutyric]	–	–	–	pKa [5]: 4.7
Arabinogalactan	does not have this effect; also recorded: did not reduce the sting caused by weak carboxylic acids	did not	neither hydrocortisone nor arabinogalactan reduced the sting; also recorded: slightly enhanced the sting	Increase of exfoliation performance of a skin care lotion containing alpha hydroxy acid (skin): 80%; Irritation of the skin care lotion containing alpha hydroxy acid (in words) (skin): without increased irritation; Effect on keratinocyte differentiation (in words) [6]: did not
Maltodextrin	decrease irritation	–	–	–
C[C@]12CCC(=O)C=C1CC[C@@H]1[C@@H]2[C@@H](O)C[C@@]2(C)[C@H]1CC[C@]2(O)C(=O)CO [hydrocortisone, Hydrocortisone]	did not reduce the sting caused by weak carboxylic acids	–	neither hydrocortisone nor arabinogalactan reduced the sting	–
